In US8404720B2, “Aryl sulfonamide amine compounds and their use as 5-HT6 ligands” (Suven Life Sciences Limited, priority 2008, dated 2013):

tested on: Male Wister rats; assay: Object Recognition Task Model; assay type: in vivo; settings: rat, 3 mg/kg p.o., choice trial T2; first of two columns (sub-head not printed, presumably familiar object)
Method: The cognition-enhancing properties of compounds of this invention were estimated using a model of animal cognition: the object recognition task model.
Male Wister rats (230-280 grams) obtained from N. I. N. (National Institute of Nutrition, Hyderabad, India) was used as experimental animals. Four animals were housed in each cage. Animals were kept on 20% food deprivation before one day and given water ad libitum throughout the experiment and maintained on a 12 hours light/dark cycle. Also the rats were habituated to individual arenas for 1 hour in the absence of any objects.
One group of 12 rats received vehicle (1 mL/Kg) orally and another set of animals received compound of the formula (I) either orally or i.p., before one hour of the familiar (T1) and choice trial (T2).
The experiment was carried out in a 50×50×50 cm open field made up of acrylic. In the familiarization phase, (T1), the rats were placed individually in the open field for 3 minutes, in which two identical objects (plastic bottles, 12.5 cm height×5.5 cm diameter) covered in yellow masking tape alone (a1 and a2) were positioned in two adjacent corners, 10 cm. from the walls. After 24 hours of the (T1) trial for long-term memory test, the same rats were placed in the same arena as they were placed in T1 trial. Choice phase (T2) rats were allowed to explore the open field for 3 minutes in presence of one familiar object (a3) and one novel object (b) (Amber color glass bottle, 12 cm high and 5 cm in diameter). Familiar objects presented similar textures, colors and sizes. During the T1 and T2 trial, explorations of each object (defined as sniffing, licking, chewing or having moving vibrissae whilst directing the nose towards the object at a distance of less than 1 cm) were recorded separately by stopwatch. Sitting on an object was not regarded as exploratory activity, however, it was rarely observed.
T1 is the total time spent exploring the familiar objects (a1+a2).
T2 is the total time spent exploring the familiar object and novel object (a3+b).
The object recognition test was performed as described by Ennaceur, A., Delacour, J., A new one-trial test for neurobiological studies of memory in rats—Behavioural data, Behay. Brain Res., 1988, 31, 47-59.

| Structure (SMILES) | Exploration time mean ± S.E.M (sec), first value column [s] |
| --- | --- |
| Cc1ccc(NS(=O)(=O)c2ccccc2Br)cc1NC1CCN(C)CC1 [Example 15, 2-Bromo-N-[4-Methyl-3-(1-methylpiperidin-4-ylamino)phenyl] benzenesulfonamide] | 6.89 ± 1.54 |

same assay, conditions: rat, 3 mg/kg p.o., choice trial T2; second of two columns (sub-head not printed, presumably novel object)

| Structure (SMILES) | Exploration time mean ± S.E.M (sec), second value column [s] |
| --- | --- |
| Cc1ccc(NS(=O)(=O)c2ccccc2Br)cc1NC1CCN(C)CC1 [Example 15, 2-Bromo-N-[4-Methyl-3-(1-methylpiperidin-4-ylamino)phenyl] benzenesulfonamide] | 13.26 ± 2.80 |

same assay, conditions: rat, 3 mg/kg p.o., object recognition task

| Structure (SMILES) | Inference |
| --- | --- |
| Cc1ccc(NS(=O)(=O)c2ccccc2Br)cc1NC1CCN(C)CC1 [Example 15, 2-Bromo-N-[4-Methyl-3-(1-methylpiperidin-4-ylamino)phenyl] benzenesulfonamide] | Active |

tested on: rats; assay: Water Maze (scopolamine induced reversal); assay type: in vivo; settings: p.o.
Method: The water maze apparatus consisted of a circular pool (1.8 m diameter, 0.6 m high) constructed in black Perspex (TSE systems, Germany) filled with water (24±2° C.) and positioned underneath a wide-angled video camera to track animal. The 10 cm^2 perspex platform, lying 1 cm below the water surface, was placed in the centre of one of the four imaginary quadrants, which remained constant for all rats. The black Perspex used in the construction of the maze and platform offered no intramaze cues to guide escape behavior. By contrast, the training room offered several strong extramaze visual cues to aid the formation of the spatial map necessary for escape learning. An automated tracking system, [Videomot 2 (5.51), TSE systems, Germany] was employed. This program analyzes video images acquired via a digital camera and an image acquisition boards that determined path length, swim speed and the number of entries and duration of swim time spent in each quadrant of the water maze.

| Structure (SMILES) | Scopolamine Induced Reversal |
| --- | --- |
| Cc1ccc(NS(=O)(=O)c2ccccc2Br)cc1NC1CCN(C)CC1 [Example 15, 2-Bromo-N-[4-Methyl-3-(1-methylpiperidin-4-ylamino)phenyl] benzenesulfonamide] | ≦3 mg/kg, p.o. |

tested on: not listed separately; assay: Rodent Pharmacokinetic Study; assay type: in vivo, Male wistar rats; settings: Wistar/Male rat, Intravenous, 5 mg/kg, 50% PEG-400 in water for injection
Method: Male wistar rats (230-280 grams) obtained from NIN (National Institute of Nutrition, Hyderabad, India) were used as an experimental animal.
Three to five animals were housed in each cage. Animals were kept fasted over night and maintained on a 12 hours light/dark cycle. […]
At each time point blood was collected by jugular vein. Plasma was stored frozen at −20° C. until analysis. The concentrations of the NCE compound in plasma were determined using LC-MS/MS method.
Schedule time points: Pre dose. 0.25, 0.5, 1, 1.5, 2, 3, 4, 6, 8, 10, 12 and 24 hours after dosing (n=3). The NCE compounds were quantified in plasma by validated LC-MS/MS method using solid phase extraction technique. NCE compounds were quantified in the calibration range of 2-2000 ng/mL in plasma. Study samples were analyzed using calibration samples in the batch and quality control samples spread across the batch.
Pharmacokinetic parameters Cmax, Tmax, AUCt, AUCinf, half life, volume of distribution, clearance, mean residence time and thereby oral bioavailability were calculated by non-compartmental model using software WinNonlin version 5.1.

| Structure (SMILES) | AUCt [ng·h/mL] | T1/2 [h] | Tmax [h] |
| --- | --- | --- | --- |
| Cc1ccc(NS(=O)(=O)c2ccccc2Br)cc1NC1CCN(C)CC1 [Example 15, 2-Bromo-N-[4-Methyl-3-(1-methylpiperidin-4-ylamino)phenyl] benzenesulfonamide] | 1231 ± 52 | 3.08 ± 2.11 | 0.08 ± 0.0 |

same assay, conditions: Wistar/Male rat, Intravenous, 5 mg/kg, 50% PEG-400 in water for injection, plasma

| Structure (SMILES) | Cmax [ng/mL] |
| --- | --- |
| Cc1ccc(NS(=O)(=O)c2ccccc2Br)cc1NC1CCN(C)CC1 [Example 15, 2-Bromo-N-[4-Methyl-3-(1-methylpiperidin-4-ylamino)phenyl] benzenesulfonamide] | 727 ± 18 |

same assay, conditions: Wistar/Male rat, Oral, 10 mg/kg, 50% PEG-400 in water for injection

| Structure (SMILES) | AUCt [ng·h/mL] | T1/2 [h] | Tmax [h] |
| --- | --- | --- | --- |
| Cc1ccc(NS(=O)(=O)c2ccccc2Br)cc1NC1CCN(C)CC1 [Example 15, 2-Bromo-N-[4-Methyl-3-(1-methylpiperidin-4-ylamino)phenyl] benzenesulfonamide] | 2462 ± 901 | 3.15 ± 2.99 | 2.33 ± 1.15 |

same assay, conditions: Wistar/Male rat, Oral, 10 mg/kg, 50% PEG-400 in water for injection, plasma

| Structure (SMILES) | Cmax [ng/mL] |
| --- | --- |
| Cc1ccc(NS(=O)(=O)c2ccccc2Br)cc1NC1CCN(C)CC1 [Example 15, 2-Bromo-N-[4-Methyl-3-(1-methylpiperidin-4-ylamino)phenyl] benzenesulfonamide] | 503 ± 263 |

same assay, conditions: Wistar/Male rat, oral 10 mg/kg versus intravenous

| Structure (SMILES) | Bioavailability [%] |
| --- | --- |
| Cc1ccc(NS(=O)(=O)c2ccccc2Br)cc1NC1CCN(C)CC1 [Example 15, 2-Bromo-N-[4-Methyl-3-(1-methylpiperidin-4-ylamino)phenyl] benzenesulfonamide] | 99 |

target: Human 5-HT6 Receptor (Homo sapiens, UniProt P50406); assay: Binding Assay for Human 5-HT6 Receptor ([3H]LSD radioligand); settings: 100 nM test compound; [3H]LSD 1.5 nM; human recombinant receptor in HEK293 cells
Sequence (P50406 whole entry): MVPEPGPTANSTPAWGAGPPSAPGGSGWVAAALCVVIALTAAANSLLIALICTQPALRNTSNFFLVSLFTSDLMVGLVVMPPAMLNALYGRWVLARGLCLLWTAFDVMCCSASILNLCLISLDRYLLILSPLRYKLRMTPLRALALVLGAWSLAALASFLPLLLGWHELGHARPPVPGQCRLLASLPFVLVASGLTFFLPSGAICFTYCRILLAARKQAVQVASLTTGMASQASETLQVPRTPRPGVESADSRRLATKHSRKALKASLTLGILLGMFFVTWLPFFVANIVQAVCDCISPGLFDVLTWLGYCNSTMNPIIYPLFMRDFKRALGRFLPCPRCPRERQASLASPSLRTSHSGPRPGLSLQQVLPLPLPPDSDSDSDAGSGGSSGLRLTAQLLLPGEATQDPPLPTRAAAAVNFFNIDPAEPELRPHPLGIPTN
Method: Receptor source: Human recombinant expressed in HEK293 cells
Radioligand: [^3H]LSD (60-80 Ci/mmol)
Final ligand concentration— [1.5 nM]
Non-specific determinant: Methiothepin mesylate— [0.1 μM]
Reference compound: Methiothepin mesylate
Positive control: Methiothepin mesylate
Reactions were carried out in 50 μM TRIS-HCl (pH 7.4) containing 10 μM MgCl2, 0.5 mM EDTA for 60 minutes at 37° C. The reaction was terminated by rapid vacuum filtration onto glass fiber filters. Radioactivity trapped onto the filters was determined and compared to control values in order to ascertain any interactions of test compound(s) with the cloned serotonin 5-HT6 binding site.

| Structure (SMILES) | % Inhibition at 100 nM [%] |
| --- | --- |
| Cc1ccc(NS(=O)(=O)c2ccccc2Br)cc1NC1CCN(C)CC1 [Example 15, 2-Bromo-N-[4-Methyl-3-(1-methylpiperidin-4-ylamino)phenyl] benzenesulfonamide] | 99.44 |

same assay, conditions: 1000 nM test compound; [3H]LSD 1.5 nM; human recombinant receptor in HEK293 cells

| Structure (SMILES) | % Inhibition at 1000 nM [%] |
| --- | --- |
| Cc1ccc(NS(=O)(=O)c2ccccc2Br)cc1NC1CCN(C)CC1 [Example 15, 2-Bromo-N-[4-Methyl-3-(1-methylpiperidin-4-ylamino)phenyl] benzenesulfonamide] | 104.28 |

tested on: not listed separately; assay: Rodent Brain Penetration Study; assay type: in vivo, Male Wister rats; settings: Wistar/Male rat, Intravenous infusion, 1 mg/kg, brain/plasma
Method: Male Wister rats (230-280 grams) obtained from NIN (National Institute of Nutrition, Hyderabad, India) was used as an experimental animal. Three animals were housed in each cage. Animals were given water and food ad libitum throughout the experiment, and maintained on a 12 hours light/dark cycle.
Brain penetration was determined at steady state in rat. One day prior to dosing day, male wistar rats (225-250 grams) were anesthetized with halothane for surgical placement of jugular and femoral vein catheters. After surgery, the rats were housed in individual rat infusion cage connected with infusion components (Instech Solomon; Plymouth Meeting, Pa. USA) and allowed free access to food and water
NCE compound was dissolved in water and administered at a constant infusion rate (5 mL/kg/hr) over 6-10 hours at a target dose rate of 1.0 mg free base/kg/h. Blood samples were removed during the latter part of the infusion to confirm steady-state blood concentrations, brain and blood was collected and estimated. Animals will be sacrificed to collect the plasma and brain tissue and was homogenized. Plasma and Brain was stored frozen at −20° C. until analysis. The concentrations of the NCE compound in plasma and Brain were determined using LC-MS/MS method.
The NCE compounds were quantified in plasma and brain homogenate by validated LC-MS/MS method using solid phase extraction technique. NCE compounds were quantified in the calibration range of 1-500 ng/mL in plasma and brain homogenate. Study samples were analyzed using calibration samples in the batch and quality control samples spread across the batch. Extents of brain-blood ratio were calculated (Cb/Cp).

| Structure (SMILES) | Steady State Brain Penetration (Cb/Cp) |
| --- | --- |
| Cc1ccc(NS(=O)(=O)c2ccccc2Br)cc1NC1CCN(C)CC1 [Example 15, 2-Bromo-N-[4-Methyl-3-(1-methylpiperidin-4-ylamino)phenyl] benzenesulfonamide] | 0.35 ± 0.08 |
